Tests used:
PTH1R KO mice = assay: iPTH in PTH1R KO and PTH1R+/+ mice: PPCT IVD volume; type: in vivo, mouse
Procedure: Mice carrying the PTH1R gene flanked by loxP sites (PTH1R^flox/flox) were mated with Noto^Cre mice to generate mice bearing Noto^Cre and a floxed PTH1R allele in their germline. These mice were backcrossed to homozygous floxed mice (Noto^Cre/+/PTH1R^flox/+::PTH1R^flox/flox) to generate mice with inactivation of both alleles in notochord derived cells (genotype Noto^+/+::PTH1R^flox/flox). […] The genotype of transgenic mice was determined by PCR analyses of genomic DNA isolated from mouse tails. […] The images were reconstructed and analyzed using the GPU-CT-Reconstruction software (applied by the BL13W1 experimental station) and the VG Studio Max 3D software (version 2.1, Volume Graphics GmbH, Germany) respectively. […] The 3D quantitative analysis of IVDs was performed with the commercially available Image Pro Analyzer 3D software (Version 7.0, Media Cybernetics, Inc., USA). The 3D structural parameters analyzed for the mean height and volume and thickness distribution of IVDs. The trabecular bone of L4 was segmented from the bone marrow and analyzed to determine the trabecular bone volume fraction (BV/TV), trabecular thickness (Tb. Th), trabecular number (Tb. N) and trabecular separation (Tb. Sp).

integrin β6 = assay: Western blot of integrin β6 in NP cells at time points after PTH; type: cell-based, mouse; conditions: PTH1-34 100 nM, time dependent manner
Procedure: Western blot analyses were conducted on the protein lysates from in vitro cultured NP cells or NP tissues from mice at specific time points after PTH (1-34) treatment and human at different ages with lumbar disc degeneration. The protein extract was centrifuged, the concentration of supernatant evaluated by DC protein assay (Bio-Rad Laboratories), and then separated by SDS-PAGE and blotted on a polyvinylidene fluoride membrane (Bio-Rad Laboratories). Following incubation in specific antibodies, we detected proteins using an enhanced chemiluminescence kit (Amersham Biosciences). We used specific antibodies recognizing rabbit CTGF (CCN2) (Abcam, 1:1000), Aggrecan (ACAN) (Abcan, 1:1000), p-Smad2 (Cell Signaling Technology Inc., 1:1000), Smad2 (Cell Signaling Technology Inc., 1:1000), GAPDH (Cell Signaling Technology Inc., 1:1000), CREB (Abcam, 1:2500), pCREB (Abcam, 1:2500), PTH1R PRB-635P (Covance, 1:100), PTH1R PRB-640P (Covance, 1:500) and goat integrin β6 (Santa Cruz, 1:500) to examine the protein concentrations in the lysates. Co-immunoprecipitation analyses were conducted on the nuclear and cytoplasmic protein extraction using NE-PER Nuclear and Cytoplasmic Extraction Kit (Pierce Thermo Scientific, 78833) from in vitro cultured NP cells treated with PTH (1-34) or vehicle.

NP cells = assay: cAMP assay in NP cells (enzyme immunoassay); type: cell-based, mouse; conditions: PTH (1-34) 100 nmol
Procedure: Green fluorescent protein (GFP) labeled NP cells of notochordal origin were isolated from 15-day old Noto^Cre/+::ROSA26-lacZ^flox/flox male mice as previously described. The NP cells from 15-day old PTH1R^+/+ and PTH1R^−/−, IFT88^+/+ and IFT88^−/− male mice. Briefly, the cells were isolated from the NP region of IVDs in the spinal column from mid thoracic to lower lumbar region and digested initially with TrypLE Express (Gibco) for 30 minutes on shaker, followed by 0.25 mg/ml Collagense-P (Roche) for another […] at 37° C. The digested cells were washed twice with PBS, and cultured in α-MEM (Gibco) supplemented with 10% fetal calf serum (Atlanta Biologicals), and 1% penicillin—streptomycin (Mediatech) to 80-90% confluence at 37° C., 5% CO2 and 5% O2.
For cAMP assays, confluent cells were grown in 35-mm six-well plates starved overnight by incubation in serum-free α-MEM at 37° C. The cells were then treated with 100 nM human of human PTH (1-34; Bachem Calif., Inc.) for 1 h. Cellular cAMP was extracted and the concentration measured with the Biotrak enzyme immunoassay system (GE Healthare, Inc., Princeton, HJ). We determined the concentration of total and active TGF-β in the NP tissue using the ELISA Development Kit (R&D Systems) according to the manufacturer's instructions.

CC[C@H](C)[C@H](NC(=O)[C@H](CCC(=O)O)NC(=O)[C@H](CO)NC(=O)[C@@H](NC(=O)[C@@H](N)CO)C(C)C)C(=O)N[C@@H](CCC(N)=O)C(=O)N[C@@H](CC(C)C)C(=O)N[C@@H](CCSC)C(=O)N[C@@H](Cc1cnc[nH]1)C(=O)N[C@@H](CC(N)=O)C(=O)N[C@@H](CC(C)C)C(=O)NCC(=O)N[C@@H](CCCCN)C(=O)N[C@@H](Cc1cnc[nH]1)C(=O)N[C@@H](CC(C)C)C(=O)N[C@@H](CC(N)=O)C(=O)N[C@@H](CO)C(=O)N[C@@H](CCSC)C(=O)N[C@@H](CCC(=O)O)C(=O)N[C@@H](CCCN=C(N)N)C(=O)N[C@H](C(=O)N[C@@H](CCC(=O)O)C(=O)N[C@@H](Cc1c[nH]c2ccccc12)C(=O)N[C@@H](CC(C)C)C(=O)N[C@@H](CCCN=C(N)N)C(=O)N[C@@H](CCCCN)C(=O)N[C@@H](CCCCN)C(=O)N[C@@H](CC(C)C)C(=O)N[C@@H](CCC(N)=O)C(=O)N[C@@H](CC(=O)O)C(=O)N[C@H](C(=O)N[C@@H](Cc1cnc[nH]1)C(=O)N[C@@H](CC(N)=O)C(=O)N[C@@H](Cc1ccccc1)C(=O)O)C(C)C)C(C)C [PTH (1-34), teriparatide]
increase of IVD volume by iPTH (PTH1R KO mice; 12-month-old PTH1R KO mice): abolished
IVD volume (PTH1R KO mice; 12-month-old PTH1R+/+ mice): Increase
protein level of β6 integrin (integrin β6): significantly stimulated
time at which cAMP level in NP cells peaked (NP cells): 30 min

Source: patent US20210205638A1, “PARATHYROID HORMONE AND REGENERATION OF DEGENERATIVE DISCS DISEASE” (THE JOHNS HOPKINS UNIVERSITY, priority 2017, published 2021)
